What was measured:
Glucocorticoid receptor [1] = biological target: T1, Glucocorticoid receptor (Homo sapiens, UniProt P04150); experiment: Inhibition of human glucocorticoid receptor alpha isoform
T1 sequence (P04150 whole entry): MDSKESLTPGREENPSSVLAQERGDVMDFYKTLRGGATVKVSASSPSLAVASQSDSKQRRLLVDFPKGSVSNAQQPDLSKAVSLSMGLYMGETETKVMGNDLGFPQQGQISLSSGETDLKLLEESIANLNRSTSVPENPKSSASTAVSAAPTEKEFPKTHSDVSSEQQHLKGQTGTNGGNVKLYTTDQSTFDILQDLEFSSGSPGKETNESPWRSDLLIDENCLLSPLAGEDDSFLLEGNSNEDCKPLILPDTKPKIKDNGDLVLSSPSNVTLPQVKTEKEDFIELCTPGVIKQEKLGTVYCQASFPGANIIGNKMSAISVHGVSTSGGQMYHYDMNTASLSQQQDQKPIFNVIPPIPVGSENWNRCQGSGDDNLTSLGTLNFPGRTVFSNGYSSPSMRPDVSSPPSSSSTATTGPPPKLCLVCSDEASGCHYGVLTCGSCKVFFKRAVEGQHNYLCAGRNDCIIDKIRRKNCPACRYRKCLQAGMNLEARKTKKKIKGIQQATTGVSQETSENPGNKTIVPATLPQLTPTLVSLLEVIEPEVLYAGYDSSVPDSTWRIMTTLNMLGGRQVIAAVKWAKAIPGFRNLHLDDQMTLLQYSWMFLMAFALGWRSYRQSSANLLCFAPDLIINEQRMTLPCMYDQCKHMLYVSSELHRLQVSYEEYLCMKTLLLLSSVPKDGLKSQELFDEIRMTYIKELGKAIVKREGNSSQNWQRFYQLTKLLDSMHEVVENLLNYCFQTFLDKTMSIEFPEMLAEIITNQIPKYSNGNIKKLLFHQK

[2] = Effective concentration required for induction of glutamine synthetase in human skeletal muscle cells using 58% radiolabeled Dexamethasone; format: functional
Mus musculus [3] = organism: Mus musculus; experiment: Effective concentration required for inhibition of interleukin-6 in mouse thioglycolate-elicited peritoneal exudate cell line using 66% radiolabeled Dexamethasone; format: functional
Estrogen receptor = biological target: T2, Estrogen receptor (Homo sapiens, UniProt P03372); experiment: Binding affinity for human estrogen receptor alpha
T2 sequence (P03372 whole entry): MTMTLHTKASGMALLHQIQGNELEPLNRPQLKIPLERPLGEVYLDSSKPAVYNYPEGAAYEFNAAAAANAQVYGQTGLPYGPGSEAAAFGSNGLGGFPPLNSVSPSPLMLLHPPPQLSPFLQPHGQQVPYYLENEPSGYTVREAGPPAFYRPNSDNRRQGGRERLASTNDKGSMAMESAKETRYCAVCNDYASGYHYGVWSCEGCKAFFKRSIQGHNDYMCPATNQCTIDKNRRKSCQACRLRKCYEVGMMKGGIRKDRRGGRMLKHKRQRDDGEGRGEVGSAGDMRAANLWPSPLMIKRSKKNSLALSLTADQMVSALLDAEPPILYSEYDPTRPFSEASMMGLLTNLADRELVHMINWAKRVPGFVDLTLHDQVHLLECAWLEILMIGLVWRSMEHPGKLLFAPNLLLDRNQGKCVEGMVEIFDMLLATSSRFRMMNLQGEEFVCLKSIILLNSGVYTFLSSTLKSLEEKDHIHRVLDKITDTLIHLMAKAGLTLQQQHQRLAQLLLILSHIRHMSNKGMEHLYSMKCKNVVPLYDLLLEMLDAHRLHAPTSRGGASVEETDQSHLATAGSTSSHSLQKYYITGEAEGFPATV

Glucocorticoid receptor [4] = biological target: T1, Glucocorticoid receptor; experiment: Binding affinity for human glucocorticoid receptor
Estrogen receptor beta = Estrogen receptor beta (Homo sapiens, UniProt Q92731); experiment: Binding affinity for human estrogen receptor beta
[5] = biological target: T3, Mineralocorticoid receptor (Rattus norvegicus, UniProt P22199); experiment: Binding affinity for rat mineralocorticoid receptor
T3 sequence (P22199 whole entry): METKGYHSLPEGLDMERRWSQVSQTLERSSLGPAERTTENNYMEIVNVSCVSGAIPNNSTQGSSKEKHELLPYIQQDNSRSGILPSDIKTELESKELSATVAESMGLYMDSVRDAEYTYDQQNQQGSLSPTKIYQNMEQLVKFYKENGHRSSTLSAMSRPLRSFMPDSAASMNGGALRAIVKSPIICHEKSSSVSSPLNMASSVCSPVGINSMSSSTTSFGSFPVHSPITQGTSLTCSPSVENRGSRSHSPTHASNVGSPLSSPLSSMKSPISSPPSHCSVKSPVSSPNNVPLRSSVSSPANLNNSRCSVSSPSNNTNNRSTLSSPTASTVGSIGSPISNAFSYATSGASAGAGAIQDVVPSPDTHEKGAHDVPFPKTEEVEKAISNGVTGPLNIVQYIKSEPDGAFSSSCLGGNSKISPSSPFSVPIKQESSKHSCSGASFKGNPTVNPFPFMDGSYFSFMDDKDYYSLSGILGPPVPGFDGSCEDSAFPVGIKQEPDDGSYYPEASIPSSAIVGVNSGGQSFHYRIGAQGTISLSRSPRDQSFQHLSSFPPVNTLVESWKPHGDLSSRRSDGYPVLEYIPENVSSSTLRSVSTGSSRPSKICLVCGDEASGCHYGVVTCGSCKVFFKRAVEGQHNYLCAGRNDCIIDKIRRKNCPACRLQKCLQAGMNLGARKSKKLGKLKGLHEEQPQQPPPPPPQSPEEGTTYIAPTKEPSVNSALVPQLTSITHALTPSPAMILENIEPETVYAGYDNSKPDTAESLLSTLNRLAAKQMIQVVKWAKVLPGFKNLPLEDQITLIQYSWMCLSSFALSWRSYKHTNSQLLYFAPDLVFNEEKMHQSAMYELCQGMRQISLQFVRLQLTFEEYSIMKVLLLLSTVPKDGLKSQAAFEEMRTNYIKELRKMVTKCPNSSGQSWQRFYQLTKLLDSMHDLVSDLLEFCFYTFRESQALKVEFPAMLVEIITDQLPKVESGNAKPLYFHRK

Progesterone receptor = biological target: T4, Progesterone receptor (Homo sapiens, UniProt P06401); experiment: Binding affinity for human progesterone receptor
T4 sequence (P06401 whole entry): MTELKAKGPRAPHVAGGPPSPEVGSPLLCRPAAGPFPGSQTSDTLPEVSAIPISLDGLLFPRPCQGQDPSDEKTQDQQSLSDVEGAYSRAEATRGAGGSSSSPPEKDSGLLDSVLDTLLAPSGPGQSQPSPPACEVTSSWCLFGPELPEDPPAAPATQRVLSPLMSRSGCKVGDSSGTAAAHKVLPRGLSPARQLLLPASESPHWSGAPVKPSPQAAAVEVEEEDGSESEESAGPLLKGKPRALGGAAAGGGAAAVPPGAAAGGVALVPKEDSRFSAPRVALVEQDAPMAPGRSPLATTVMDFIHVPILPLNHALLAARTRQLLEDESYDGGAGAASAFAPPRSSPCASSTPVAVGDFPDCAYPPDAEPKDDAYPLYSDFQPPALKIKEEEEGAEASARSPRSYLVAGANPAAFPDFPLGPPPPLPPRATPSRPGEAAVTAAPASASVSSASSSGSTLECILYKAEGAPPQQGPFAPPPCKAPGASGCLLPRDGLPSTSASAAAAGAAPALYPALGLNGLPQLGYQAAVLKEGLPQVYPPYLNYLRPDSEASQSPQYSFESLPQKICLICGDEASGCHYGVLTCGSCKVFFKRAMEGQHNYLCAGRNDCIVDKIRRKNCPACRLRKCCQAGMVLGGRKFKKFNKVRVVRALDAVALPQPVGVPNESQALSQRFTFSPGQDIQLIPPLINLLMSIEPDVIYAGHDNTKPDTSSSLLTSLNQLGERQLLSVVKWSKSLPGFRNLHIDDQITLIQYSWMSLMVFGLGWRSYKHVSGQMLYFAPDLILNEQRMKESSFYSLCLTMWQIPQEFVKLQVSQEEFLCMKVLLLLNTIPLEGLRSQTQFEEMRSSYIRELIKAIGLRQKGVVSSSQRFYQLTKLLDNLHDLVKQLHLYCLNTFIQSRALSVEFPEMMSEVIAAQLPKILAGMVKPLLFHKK

Mus musculus [6] = organism: Mus musculus; experiment: Effective concentration required for inhibition of interleukin-6 in mouse thioglycolate-elicited peritoneal exudate cell line using 79% radiolabeled Dexamethasone; format: functional
A549 [7] = experiment: Effective concentration for inhibition of interleukin-6 in human A549 lung carcinoma cell line using 67% radiolabeled Dexamethasone; format: functional, cell-based
A549 [8] = experiment: Effective concentration required for inhibition of interleukin-6 in human A549 lung carcinoma cell line using […]% radiolabeled Dexamethasone; format: functional, cell-based

Estrogen receptor beta, sequence (Q92731 whole entry): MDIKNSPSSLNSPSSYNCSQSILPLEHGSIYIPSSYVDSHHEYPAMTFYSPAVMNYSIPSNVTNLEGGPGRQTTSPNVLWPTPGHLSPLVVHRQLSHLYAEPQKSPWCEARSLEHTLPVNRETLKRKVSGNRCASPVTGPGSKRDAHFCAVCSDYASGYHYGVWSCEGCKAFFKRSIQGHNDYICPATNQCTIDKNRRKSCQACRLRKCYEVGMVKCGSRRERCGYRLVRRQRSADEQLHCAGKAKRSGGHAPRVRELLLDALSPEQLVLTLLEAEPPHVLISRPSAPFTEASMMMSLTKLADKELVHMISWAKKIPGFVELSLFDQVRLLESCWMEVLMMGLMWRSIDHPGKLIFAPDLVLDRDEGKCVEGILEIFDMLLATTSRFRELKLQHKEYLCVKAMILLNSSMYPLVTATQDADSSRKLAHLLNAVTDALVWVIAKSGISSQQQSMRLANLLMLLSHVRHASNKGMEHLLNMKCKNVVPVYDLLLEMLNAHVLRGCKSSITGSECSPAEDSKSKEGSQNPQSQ

`C=C[C@@H]1CO[C@@]2(CCC3=Cc4c(cnn4-c4ccc(F)cc4)C[C@@]32C)O1` gave an IC50 (Glucocorticoid receptor [1]) of 0.038 µM.
In the case of `CCC[C@H]1OC2(CCCC3=Cc4c(cnn4-c4ccc(F)cc4)C[C@@]32C)O[C@@H]1CCC`, the IC50 (Glucocorticoid receptor [1]) is reported as 0.0089 µM and the EC50 [2] is reported as 0.029 µM.
In the case of `C[C@]12Cc3cnn(-c4ccc(F)cc4)c3C=C1CCCC21O[C@H](c2ccccc2)[C@@H](c2ccccc2)O1`, the EC50 (Mus musculus [3]) is reported as 0.026 µM and the IC50 (Glucocorticoid receptor [1]) is reported as 0.01 µM.
`C[C@H]1OC2(CCC3=Cc4c(cnn4-c4ccc(F)cc4)C[C@@]32C)O[C@@H]1C` gave an IC50 (Estrogen receptor) greater than 10 µM, an IC50 (Glucocorticoid receptor [4]) of 0.024 µM and an IC50 (Estrogen receptor beta) greater than 10 µM. It also gave an IC50 (Glucocorticoid receptor [1]) of 0.024 µM, an IC50 [5] greater than 10 µM and an IC50 (Progesterone receptor) greater than 1 µM.
Compound `C[C@]12Cc3cnn(-c4ccc(F)cc4)c3C=C1CC[C@@]21OC[C@H](c2ccccc2)O1` has an IC50 (Glucocorticoid receptor [1]) of 0.065 µM.
For `C[C@@H]1C[C@@H](C)OC2(CCCC3=Cc4c(cnn4-c4ccc(F)cc4)C[C@@]32C)O1` (stereo not given in full), the IC50 (Glucocorticoid receptor [1]) was 0.0083 µM.
`C[C@]12Cc3cnn(-c4ccc(F)cc4)c3C=C1CC[C@@]21OC[C@@H](c2ccccc2)O1` showed an IC50 (Glucocorticoid receptor [1]) of 0.026 µM.
Work on `C/C=C/[C@H]1OC2(CCCC3=Cc4c(cnn4-c4ccc(F)cc4)C[C@@]32C)O[C@@H]1/C=C/C` yielded an EC50 (Mus musculus [6]) of 0.037 µM, an EC50 (A549 [7]) of 0.0078 µM and an IC50 (Glucocorticoid receptor [1]) of 0.0025 µM.
For `C[C@]12Cc3cnn(-c4ccc(F)cc4)c3C=C1CCCC21OCCO1`, the IC50 (Estrogen receptor) was greater than 10 µM, the IC50 (Glucocorticoid receptor [4]) was 0.014 µM and the IC50 (Estrogen receptor beta) was greater than 10 µM. The IC50 (Glucocorticoid receptor [1]) was 0.014 µM, the IC50 [5] was 7.56 µM and the IC50 (Progesterone receptor) was greater than 1 µM.
With `CCCC[C@H]1OC2(CCCC3=Cc4c(cnn4-c4ccc(F)cc4)C[C@@]32C)O[C@@H]1CCCC` the IC50 (Glucocorticoid receptor [1]) was 0.022 µM and the EC50 (A549 [8]) was 0.092 µM.
